Laboratory results reported in PubChem BioAssay (NCI).
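Step 1: Grow cells in 96-well plates. Step 2: Expose to compound for 48 hours at 5 concentrations. Step 3: Interpolate endpoints linearly; if unreached, use highest concentration. TGI: total growth inhibition.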

Assays:
Experiment in all cases: DTP human tumour cell line panel, 48 h
SK-MEL-2 melanoma = test system: SK-MEL-2 melanoma
K-562 leukemia = test system: K-562 leukemia
SW-620 colon = test system: SW-620 colon
PC-3 prostate = test system: PC-3 prostate
SF-268 CNS = test system: SF-268 CNS
HCC-2998 colon = test system: HCC-2998 colon
HCT-15 colon = test system: HCT-15 colon
HT29 colon = test system: HT29 colon
DU-145 prostate = test system: DU-145 prostate
UO-31 renal = test system: UO-31 renal
SF-539 CNS = test system: SF-539 CNS
HOP-92 NSCLC = test system: HOP-92 NSCLC
A549 NSCLC = test system: A549 NSCLC
A498 renal = test system: A498 renal
CAKI-1 renal = test system: CAKI-1 renal
SF-295 CNS = test system: SF-295 CNS
MOLT-4 leukemia = test system: MOLT-4 leukemia
RPMI-8226 leukemia = test system: RPMI-8226 leukemia
SR leukemia = test system: SR leukemia

| SMILES | TGI (SK-MEL-2 melanoma) [µM] | TGI (K-562 leukemia) [µM] | TGI (SW-620 colon) [µM] | TGI (PC-3 prostate) [µM] | TGI (SF-268 CNS) [µM] | TGI (HCC-2998 colon) [µM] | TGI (HCT-15 colon) [µM] | TGI (HT29 colon) [µM] | TGI (DU-145 prostate) [µM] | TGI (UO-31 renal) [µM] | TGI (SF-539 CNS) [µM] | TGI (HOP-92 NSCLC) [µM] | TGI (A549 NSCLC) [µM] | TGI (A498 renal) [µM] | TGI (CAKI-1 renal) [µM] | TGI (SF-295 CNS) [µM] | TGI (MOLT-4 leukemia) [µM] | TGI (RPMI-8226 leukemia) [µM] | TGI (SR leukemia) [µM] |
| --- | --- | --- | --- | --- | --- | --- | --- | --- | --- | --- | --- | --- | --- | --- | --- | --- | --- | --- | --- |
| CC(=O)O[C@H]1C(=O)[C@@]2(C)[C@H]([C@H](OC(=O)c3ccoc3)[C@]3(O)C[C@H](OC(=O)[C@H](O)[C@@H](NC(=O)c4ccccc4)c4ccccc4)C(C)=C1C3(C)C)[C@]1(OC(C)=O)CO[C@@H]1C[C@@H]2O | 0.696 | 0.156 | > 12.5 | > 12.5 | > 12.5 | 0.998 | > 12.5 | > 12.5 | > 12.5 | > 12.5 | 0.221 | > 12.5 | > 12.5 | > 12.5 | > 12.5 | > 12.5 | > 11.6 | – | – |
| Cc1ccc([N+](=O)[O-])c2c(NCCC[N+](C)(C)[O-])c3ccccc3nc12 | 2.25 | > 38.3 | > 72.6 | 4.41 | 24.9 | 2.55 | 33 | 5.26 | 8.19 | 42.6 | 9.76 | 5.04 | 6.29 | 4.84 | 97 | > 100 | – | – | – |
| CC(C)=C[C@H]1CCC2(OCCO2)[C@]1(C)CO | > 100 | – | > 100 | > 100 | > 100 | > 100 | > 100 | – | – | > 100 | > 100 | – | > 100 | > 100 | > 100 | > 100 | – | > 100 | – |
| COc1cc(Br)cc2cc(-c3cn4c(n3)sc3ccccc34)c(=O)oc12 | 70.6 | 46.4 | > 75 | 41.2 | > 75 | – | > 75 | > 75 | 48.1 | > 75 | > 75 | 47.5 | > 75 | 51 | > 75 | 58.4 | 65.4 | 49.8 | > 75 |
| CSc1nnc(SC)nn1 | – | 27.4 | 35.5 | 33.7 | 29.4 | – | 35.2 | 36.5 | 45.4 | 29.5 | 32.1 | 14.8 | 43.3 | > 100 | 31.4 | 33.9 | 2.37 | 32.7 | – |
| O=C1CC(c2cccc([N+](=O)[O-])c2)C2(C(=O)NC(=O)NC2=O)C(c2cccc([N+](=O)[O-])c2)C1 (centres undefined) | > 100 | > 100 | > 100 | > 100 | 84.1 | – | > 100 | > 100 | > 100 | > 100 | > 100 | > 100 | > 100 | > 100 | – | > 100 | > 100 | > 100 | > 100 |
| N#CCCC(CCC#N)(CCC#N)NO | > 100 | > 100 | > 100 | > 100 | > 100 | – | > 100 | > 100 | > 100 | > 100 | > 100 | > 100 | > 100 | – | > 100 | > 100 | – | > 100 | > 100 |
| CCCc1c(O)nc(Nc2nc3ccccc3[nH]2)[nH]c1=O | > 100 | > 100 | > 100 | > 100 | > 100 | – | > 100 | > 100 | > 100 | > 100 | > 100 | > 100 | > 100 | > 100 | > 100 | > 100 | > 100 | > 100 | > 100 |
| CCOC(=O)Cc1nc2cc(F)c(F)cc2[nH]c1=O | > 100 | > 100 | > 100 | > 100 | > 100 | > 100 | > 100 | > 100 | > 100 | > 100 | > 100 | > 100 | > 100 | – | > 100 | > 100 | > 100 | > 100 | – |
| CC(C)=C[C@H]1CCC2(OCCO2)[C@]1(C)COCc1ccccc1 | 85.9 | – | > 100 | > 100 | > 100 | 37.4 | > 100 | – | – | > 100 | 61.7 | – | > 100 | 66.7 | > 100 | > 100 | 32.3 | 41.9 | – |
| Cn1c([C@H](C#N)c2ncccc2[N+](=O)[O-])nc2ccccc21 | > 100 | > 100 | > 100 | > 100 | > 100 | > 100 | > 100 | > 100 | – | > 100 | 95.4 | > 100 | > 100 | > 100 | > 100 | > 100 | > 100 | > 100 | > 100 |
| COCc1nc2c(OC)c(-c3nc4nc(N5CCN(C)CC5)ccc4[nH]3)cc(OC)c2n1C | 41.9 | > 100 | > 100 | 63.4 | > 100 | 32.4 | > 100 | 62 | > 100 | 76.9 | 27.1 | > 100 | > 100 | – | > 100 | 92.9 | 49.6 | 59.1 | – |
| CC1(C)C[C@@H]2C1CCC1(C)CC2(O)CC[C@H]1O (some centres undefined) | > 100 | > 100 | > 100 | > 100 | > 100 | – | > 100 | > 100 | – | > 100 | – | > 100 | > 100 | – | > 100 | > 100 | > 100 | > 100 | > 100 |
| c1ccc(CNc2nncc3[nH]cnc23)cc1 | > 100 | > 100 | > 100 | > 100 | – | > 100 | > 100 | > 100 | – | > 100 | > 100 | > 100 | > 100 | > 100 | > 100 | > 100 | > 100 | > 100 | > 100 |
